# Several values for one entry are separate records, joined by “and”; a condition that tells them apart may be missing. Equal values may be shown once. Inconclusive results and toxic doses are left out.
# Tested on: CD2F1 mice, L1210 leukemia ip, survival T/C
# Experiment: NCI In Vivo Anticancer Drug Screen. Data for tumor model L1210 Leukemia (intraperitoneal) in CD2F1 (CDF1) mice
# Conditions: higher = longer survival
# Procedure, shortened: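 Each value reflects a quotient of treated over vehicle control outcomes in mice with a transplanted tumor.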
# [1] = endpoint: mean survival time, dose: 100.0 mg/kg/injection, schedule: Q01DX009 (ip), vehicle: saline with Tween-80
# [2] = endpoint: mean survival time, dose: 200.0 mg/kg/injection, schedule: Q01DX009 (ip), vehicle: saline with Tween-80
# [3] = endpoint: mean survival time, dose: 400.0 mg/kg/injection, schedule: Q01DX009 (ip), vehicle: saline with Tween-80
# [4] = endpoint: mean survival time, dose: 100.0 mg/kg/injection, schedule: Q04DX003 (ip), vehicle: saline with Tween-80
# [5] = endpoint: mean survival time, dose: 200.0 mg/kg/injection, schedule: Q04DX003 (ip), vehicle: saline with Tween-80
# [6] = endpoint: mean survival time, dose: 400.0 mg/kg/injection, schedule: Q04DX003 (ip), vehicle: saline with Tween-80
# [7] = endpoint: mean survival time, dose: 100.0 mg/kg/injection, schedule: Q01DX001 (ip), vehicle: saline
smiles,measurement,setting,value
O=c1[nH]cnc2[nH]ncc12,T/C,"endpoint: mean survival time, dose: 8.4 mg/kg/injection, schedule: Q04DX003 (ip), vehicle: saline with Tween-80",99 % of control
same,T/C,"endpoint: mean survival time, dose: 14.0 mg/kg/injection, schedule: Q04DX003 (ip), vehicle: saline with Tween-80",103 % of control
same,T/C,"endpoint: mean survival time, dose: 23.4 mg/kg/injection, schedule: Q04DX003 (ip), vehicle: saline with Tween-80",96 % of control
same,T/C,"endpoint: mean survival time, dose: 39.0 mg/kg/injection, schedule: Q04DX003 (ip), vehicle: saline with Tween-80",101 % of control and 111 % of control
same,T/C,"endpoint: mean survival time, dose: 50.0 mg/kg/injection, schedule: Q01DX009 (ip), vehicle: saline with Tween-80",104 % of control
same,T/C,"endpoint: mean survival time, dose: 60.0 mg/kg/injection, schedule: Q01DX006 (ip), vehicle: saline with Tween-80",97 % of control
same,T/C,"endpoint: mean survival time, dose: 65.0 mg/kg/injection, schedule: Q04DX003 (ip), vehicle: saline with Tween-80",99 % of control and 104 % of control
same,T/C,[1],106 % of control
same,T/C,"endpoint: mean survival time, dose: 108.0 mg/kg/injection, schedule: Q04DX003 (ip), vehicle: saline with Tween-80",108 % of control and 111 % of control
same,T/C,"endpoint: mean survival time, dose: 120.0 mg/kg/injection, schedule: Q01DX006 (ip), vehicle: saline with Tween-80",107 % of control
same,T/C,"endpoint: mean survival time, dose: 180.0 mg/kg/injection, schedule: Q04DX003 (ip), vehicle: saline with Tween-80",106 % of control and 109 % of control
same,T/C,[2],107 % of control
same,T/C,"endpoint: mean survival time, dose: 300.0 mg/kg/injection, schedule: Q04DX003 (ip), vehicle: saline with Tween-80",104 % of control
same,T/C,"endpoint: mean survival time, dose: 500.0 mg/kg/injection, schedule: Q04DX003 (ip), vehicle: saline with Tween-80",104 % of control
same,T/C,"endpoint: mean survival time, dose: 833.0 mg/kg/injection, schedule: Q04DX003 (ip), vehicle: saline with Tween-80",97 % of control
same,T/C,"endpoint: median survival time, dose: 12.5 mg/kg/injection, schedule: Q01DX009 (ip), vehicle: suspension in saline",101 % of control
same,T/C,"endpoint: median survival time, dose: 25.0 mg/kg/injection, schedule: Q01DX009 (ip), vehicle: suspension in saline",103 % of control
same,T/C,"endpoint: median survival time, dose: 50.0 mg/kg/injection, schedule: Q01DX009 (ip), vehicle: suspension in saline",100 % of control
same,T/C,"endpoint: median survival time, dose: 100.0 mg/kg/injection, schedule: Q01DX009 (ip), vehicle: suspension in saline",101 % of control
same,T/C,"endpoint: median survival time, dose: 200.0 mg/kg/injection, schedule: Q01DX009 (ip), vehicle: suspension in saline",107 % of control
N#CC(CN1CCOCC1)[N+](=O)[O-] (stereo not given),T/C,[1],95 % of control
same,T/C,[2],100 % of control
same,T/C,[3],118 % of control
C=C1C=CC1=O,T/C,"endpoint: mean survival time, dose: 1.0 micrograms/kg/injection, schedule: Q01DX009 (ip), vehicle: olive oil, sesame oil, peanut oil",97 % of control
same,T/C,"endpoint: mean survival time, dose: 1.0 micrograms/kg/injection, schedule: Q01DX009 (ip), vehicle: other",102 % of control
same,T/C,"endpoint: mean survival time, dose: 6.0 micrograms/kg/injection, schedule: Q01DX009 (ip), vehicle: olive oil, sesame oil, peanut oil",97 % of control
same,T/C,"endpoint: mean survival time, dose: 6.0 micrograms/kg/injection, schedule: Q01DX009 (ip), vehicle: other",103 % of control
same,T/C,"endpoint: mean survival time, dose: 10.0 micrograms/kg/injection, schedule: Q01DX009 (ip), vehicle: olive oil, sesame oil, peanut oil",94 % of control
same,T/C,"endpoint: mean survival time, dose: 10.0 micrograms/kg/injection, schedule: Q01DX009 (ip), vehicle: other",101 % of control
same,T/C,"endpoint: mean survival time, dose: 60.0 micrograms/kg/injection, schedule: Q01DX009 (ip), vehicle: olive oil, sesame oil, peanut oil",96 % of control
same,T/C,"endpoint: mean survival time, dose: 60.0 micrograms/kg/injection, schedule: Q01DX009 (ip), vehicle: other",104 % of control
same,T/C,"endpoint: mean survival time, dose: 100.0 micrograms/kg/injection, schedule: Q01DX006 (ip), vehicle: other",101 % of control
same,T/C,"endpoint: mean survival time, dose: 100.0 micrograms/kg/injection, schedule: Q01DX009 (ip), vehicle: olive oil, sesame oil, peanut oil",97 % of control
same,T/C,"endpoint: mean survival time, dose: 100.0 micrograms/kg/injection, schedule: Q01DX009 (ip), vehicle: other",100 % of control
same,T/C,"endpoint: mean survival time, dose: 600.0 micrograms/kg/injection, schedule: Q01DX009 (ip), vehicle: olive oil, sesame oil, peanut oil",91 % of control
same,T/C,"endpoint: mean survival time, dose: 1000.0 micrograms/kg/injection, schedule: Q01DX009 (ip), vehicle: olive oil, sesame oil, peanut oil",96 % of control
Cc1ccc(-n2c(N)cc(=O)[nH]c2=S)nc1,T/C,[4],95 % of control
same,T/C,[5],100 % of control
same,T/C,[6],95 % of control
O=C(On1nnc2ccccc2c1=O)c1ccccc1,T/C,"endpoint: mean survival time, dose: 12.5 mg/kg/injection, schedule: Q01DX001 (ip), vehicle: distilled water + Tween-80",102 % of control
same,T/C,"endpoint: mean survival time, dose: 25.0 mg/kg/injection, schedule: Q01DX001 (ip), vehicle: distilled water + Tween-80",101 % of control
same,T/C,"endpoint: mean survival time, dose: 50.0 mg/kg/injection, schedule: Q01DX001 (ip), vehicle: distilled water + Tween-80",98 % of control
same,T/C,"endpoint: mean survival time, dose: 100.0 mg/kg/injection, schedule: Q01DX001 (ip), vehicle: distilled water + Tween-80",100 % of control
same,T/C,"endpoint: mean survival time, dose: 200.0 mg/kg/injection, schedule: Q01DX001 (ip), vehicle: distilled water + Tween-80",97 % of control
COC(=O)C1=NC=NC1=[N+]=[N-],T/C,"endpoint: mean survival time, dose: 10.0 mg/kg/injection, schedule: Q01DX001 (ip), vehicle: saline",96 % of control
same,T/C,"endpoint: mean survival time, dose: 20.0 mg/kg/injection, schedule: Q01DX001 (ip), vehicle: saline",93 % of control
CN(Cc1ccc([N+](=O)[O-])cc1)N=Nc1ccc(C(=O)O)cc1,T/C,"endpoint: mean survival time, dose: 25.0 mg/kg/injection, schedule: Q01DX009 (ip), vehicle: other",94 % of control
same,T/C,"endpoint: mean survival time, dose: 50.0 mg/kg/injection, schedule: Q01DX009 (ip), vehicle: other",97 % of control
same,T/C,"endpoint: mean survival time, dose: 100.0 mg/kg/injection, schedule: Q01DX009 (ip), vehicle: other",86 % of control
same,T/C,"endpoint: mean survival time, dose: 200.0 mg/kg/injection, schedule: Q01DX009 (ip), vehicle: other",94 % of control
CCN(CC)C(C)C(=O)Nc1c(C)cccc1Cl (stereo not given),T/C,"endpoint: mean survival time, dose: 25.0 mg/kg/injection, schedule: Q01DX009 (ip), vehicle: saline",92 % of control
same,T/C,[7],109 % of control
OCC1OC(n2cnc3c(OC4CCCC4)ncnc32)C(O)C1O (stereo not given),T/C,[7],101 % of control
same,T/C,"endpoint: mean survival time, dose: 200.0 mg/kg/injection, schedule: Q01DX001 (ip), vehicle: saline",100 % of control
same,T/C,"endpoint: mean survival time, dose: 400.0 mg/kg/injection, schedule: Q01DX001 (ip), vehicle: saline",100 % of control
CCC(CC)(C[NH-])C[NH-].[Cl][Pt+2][Cl],T/C,"endpoint: mean survival time, dose: 1.56 mg/kg/injection, schedule: Q04DX003 (ip), vehicle: saline",105 % of control
same,T/C,"endpoint: mean survival time, dose: 3.12 mg/kg/injection, schedule: Q04DX003 (ip), vehicle: saline",118 % of control
same,T/C,"endpoint: mean survival time, dose: 6.25 mg/kg/injection, schedule: Q04DX003 (ip), vehicle: saline",119 % of control
same,T/C,"endpoint: mean survival time, dose: 12.5 mg/kg/injection, schedule: Q04DX003 (ip), vehicle: saline with Tween-80",319 % of control
same,T/C,"endpoint: mean survival time, dose: 12.5 mg/kg/injection, schedule: Q04DX003 (ip), vehicle: saline",155 % of control
same,T/C,"endpoint: mean survival time, dose: 25.0 mg/kg/injection, schedule: Q04DX003 (ip), vehicle: saline with Tween-80",307 % of control
same,T/C,"endpoint: mean survival time, dose: 25.0 mg/kg/injection, schedule: Q04DX003 (ip), vehicle: saline",227 % of control
same,T/C,"endpoint: mean survival time, dose: 50.0 mg/kg/injection, schedule: Q04DX003 (ip), vehicle: saline with Tween-80",86 % of control
same,T/C,"endpoint: median survival time, dose: 1.5 mg/kg/injection, schedule: Q01DX009 (ip), vehicle: carboxymethylcellulose (CMC)",234 % of control
same,T/C,"endpoint: median survival time, dose: 3.0 mg/kg/injection, schedule: Q01DX009 (ip), vehicle: carboxymethylcellulose (CMC)",203 % of control
same,T/C,"endpoint: median survival time, dose: 6.0 mg/kg/injection, schedule: Q01DX001 (ip), vehicle: carboxymethylcellulose (CMC)",203 % of control
same,T/C,"endpoint: median survival time, dose: 6.0 mg/kg/injection, schedule: Q01DX009 (ip), vehicle: carboxymethylcellulose (CMC)",109 % of control
same,T/C,"endpoint: median survival time, dose: 9.0 mg/kg/injection, schedule: Q01DX001 (ip), vehicle: carboxymethylcellulose (CMC)",312 % of control
same,T/C,"endpoint: median survival time, dose: 9.0 mg/kg/injection, schedule: Q01DX009 (ip), vehicle: carboxymethylcellulose (CMC)",98 % of control
same,T/C,"endpoint: median survival time, dose: 12.0 mg/kg/injection, schedule: Q01DX001 (ip), vehicle: carboxymethylcellulose (CMC)",312 % of control
same,T/C,"endpoint: median survival time, dose: 15.0 mg/kg/injection, schedule: Q01DX001 (ip), vehicle: carboxymethylcellulose (CMC)",106 % of control
CN(Cc1ccccc1)C(=O)C(=O)c1c[nH]c2ccccc12,T/C,[1],95 % of control
same,T/C,[4],98 % of control
same,T/C,[2],89 % of control
same,T/C,[5],87 % of control
same,T/C,[3],91 % of control
same,T/C,[6],90 % of control
CC12CCC(O)CC1CCC1C2CCC2(C)C(C3=CC(=O)OC3)CCC12O (stereo not given),T/C,"endpoint: mean survival time, dose: 12.5 mg/kg/injection, schedule: Q04DX003 (ip), vehicle: Klucel (hydroxypropylcellulose) (HPC)",92 % of control
same,T/C,"endpoint: mean survival time, dose: 25.0 mg/kg/injection, schedule: Q04DX003 (ip), vehicle: Klucel (hydroxypropylcellulose) (HPC)",100 % of control
same,T/C,"endpoint: mean survival time, dose: 50.0 mg/kg/injection, schedule: Q04DX003 (ip), vehicle: Klucel (hydroxypropylcellulose) (HPC)",92 % of control
C1CN(CCSSCCN2CCOCC2)CCO1,T/C,"endpoint: mean survival time, dose: 50.0 mg/kg/injection, schedule: Q01DX009 (ip), vehicle: saline sonified",100 % of control
same,T/C,"endpoint: mean survival time, dose: 100.0 mg/kg/injection, schedule: Q01DX009 (ip), vehicle: saline sonified",100 % of control
same,T/C,[4],104 % of control
same,T/C,"endpoint: mean survival time, dose: 200.0 mg/kg/injection, schedule: Q01DX009 (ip), vehicle: saline sonified",103 % of control
same,T/C,[5],104 % of control
